Values quoted from earlier work as cited in patent US20030170318A1, “Fluoride compositions and uses thereof” (priority 2000, published 2003).

What was measured:
Ras/RasGAP complex = conditions: fluoride salt added to mixed Ras and GAP; free fluoride needed in solution
[1] = tested on: osteosarcoma cell line UMR 106; conditions: 0.5 mM fluoride, UMR 106 cultures
[2] = tested on: human leukemia (HL-60) cells
Drosophila = conditions: mutation induced by Trenimon and 1-phenyl-3,3-dimethyltriazene
[3] = children
normal cells = conditions: pre, simultaneous and post-treatments; Trenimon-induced chromosomal aberrations
mutant RhoGAP = conditions: arginine to alanine mutant, in the presence of aluminum fluoride

Q: With [Be+2].[F-].[F-] [beryllium fluoride, reference compound] as the compound, how does the Ras/RasGAP complex formation (Ras/RasGAP complex) read?
A: readily formed

Q: Which apoptosis [1] does the source give for F [fluoride] here?
A: induction of apoptosis

Q: And the cell proliferation [1]?
A: decrease in cell proliferation

Q: What about the cell death [2] of the same compound?
A: causes cell death

Q: And the “caspase-3 activation leading to apoptosis” value ([2]; cleaves poly(ADP-ribose) polymerase)?
A: activation of caspase-3

Q: And the antimutagenic effect (Drosophila)?
A: strong antimutagenic effect

Q: And the “toxic blood plasma fluoride level” value?
A: about 15 μM

Q: And the “fluoride retained of all fluoride consumed” value [3]?
A: twenty

Q: Which Ras/RasGAP complex formation (Ras/RasGAP complex) does the source give for [F-].[F-].[Mg+2] [magnesium fluoride] here?
A: readily formed

Q: Which “frequency of undamaged mitosis” value (normal cells) does the source give for [F-].[Na+] [sodium fluoride] here?
A: significantly enhanced

Q: What does the source list for aluminum fluoride?
A: Ras/RasGAP complex formation (Ras/RasGAP complex): readily formed; hydrolysis of RhoGTP to RhoGDP by mutant RhoGAP (mutant RhoGAP): as effective as normal RhoGAP
